These compounds were tested against T1, SARS-CoV-2 NSP3 Mac1 (Severe acute respiratory syndrome coronavirus 2, UniProt P0DTD1) (assay: not given). Details: PanDDA 1-BDC (background density correction) of the event; crystal soak 100 mM; PanDDA run dmso_34.
Format: binding

SMILES	1-BDC
CCc1c[nH]c2ncnc(N3CCCC(S(C)(=O)=O)C3)c12 (centres unmarked) [Z1027]	0.17
O=S1(=O)CCC2(CCCN(c3ncnc4[nH]ccc34)C2)C1 (centres unmarked) [Z4305]	0.38
CCc1c[nH]c2ncnc(N3CCCC(Cc4nc(C)no4)C3)c12 (centres unmarked) [Z5531]	0.2
O=c1[nH]nc(C2CCCN(c3ncnc4[nH]ccc34)C2)o1 (centres unmarked) [Z7655]	0.09

Same assay, conditions: PanDDA 1-BDC value of the event; crystal soak, compound concentration 100 mM; per dataset

SMILES	1-BDC
O=C(NC1c2cccc(O)c2CC1C(=O)O)c1cnc2c(c1)CCCN2 (centres unmarked) [8539_0006]	0.1

Same assay, conditions: PanDDA event map, 1 minus background density correction; crystal soaking of Mac1

SMILES	1-BDC
O=C(NC1c2cccc(O)c2CC1C(=O)O)c1cnc2c(c1)CCCN2 (centres unmarked) [8539_0006]	0.1
CCc1c[nH]c2ncnc(N3CCCC(S(C)(=O)=O)C3)c12 (centres unmarked) [Z1027]	0.17
O=S1(=O)CCC2(CCCN(c3ncnc4[nH]ccc34)C2)C1 (centres unmarked) [Z4305]	0.38
CCc1c[nH]c2ncnc(N3CCCC(Cc4nc(C)no4)C3)c12 (centres unmarked) [Z5531]	0.2
O=c1[nH]nc(C2CCCN(c3ncnc4[nH]ccc34)C2)o1 (centres unmarked) [Z7655]	0.09

Same assay, conditions: crystal soak, compound concentration 100 mM; PanDDA run dmso_34; series docking_lead-like_1

SMILES	PanDDA hit?
CCc1c[nH]c2ncnc(N3CCCC(S(C)(=O)=O)C3)c12 (centres unmarked) [Z1027]	TRUE
O=S1(=O)CCC2(CCCN(c3ncnc4[nH]ccc34)C2)C1 (centres unmarked) [Z4305]	TRUE
CCc1c[nH]c2ncnc(N3CCCC(Cc4nc(C)no4)C3)c12 (centres unmarked) [Z5531]	TRUE
O=c1[nH]nc(C2CCCN(c3ncnc4[nH]ccc34)C2)o1 (centres unmarked) [Z7655]	TRUE

Same assay, conditions: crystal soak, compound concentration 100 mM; per dataset

SMILES	PanDDA hit?
O=C(NC1c2cccc(O)c2CC1C(=O)O)c1cnc2c(c1)CCCN2 (centres unmarked) [8539_0006]	TRUE

Same assay, conditions: ligand modeled in the crystal structure; crystal soak 100 mM; PanDDA run dmso_34

SMILES	Modeled?
CCc1c[nH]c2ncnc(N3CCCC(S(C)(=O)=O)C3)c12 (centres unmarked) [Z1027]	TRUE
O=S1(=O)CCC2(CCCN(c3ncnc4[nH]ccc34)C2)C1 (centres unmarked) [Z4305]	TRUE
CCc1c[nH]c2ncnc(N3CCCC(Cc4nc(C)no4)C3)c12 (centres unmarked) [Z5531]	TRUE
O=c1[nH]nc(C2CCCN(c3ncnc4[nH]ccc34)C2)o1 (centres unmarked) [Z7655]	TRUE

Same assay, conditions: ligand modeled in the crystal structure; crystal soak, compound concentration 100 mM; per dataset

SMILES	Modeled?
O=C(NC1c2cccc(O)c2CC1C(=O)O)c1cnc2c(c1)CCCN2 (centres unmarked) [8539_0006]	TRUE

Same assay, conditions: ligand occupancy after refinement (phenix.refine); crystal soaking of Mac1

SMILES	Refined occupancy
O=C(NC1c2cccc(O)c2CC1C(=O)O)c1cnc2c(c1)CCCN2 (centres unmarked) [8539_0006]	20
CCc1c[nH]c2ncnc(N3CCCC(S(C)(=O)=O)C3)c12 (centres unmarked) [Z1027]	34
O=S1(=O)CCC2(CCCN(c3ncnc4[nH]ccc34)C2)C1 (centres unmarked) [Z4305]	76
CCc1c[nH]c2ncnc(N3CCCC(Cc4nc(C)no4)C3)c12 (centres unmarked) [Z5531]	40
O=c1[nH]nc(C2CCCN(c3ncnc4[nH]ccc34)C2)o1 (centres unmarked) [Z7655]	18

Same assay, conditions: overall hit flag: binding in crystallographic soaking or the HTRF-based binding assay

SMILES	HIT*
CCc1c[nH]c2ncnc(N3CCCC(S(C)(=O)=O)C3)c12 (centres unmarked) [Z1027]	Y
O=S1(=O)CCC2(CCCN(c3ncnc4[nH]ccc34)C2)C1 (centres unmarked) [Z4305]	Y
CCc1c[nH]c2ncnc(N3CCCC(Cc4nc(C)no4)C3)c12 (centres unmarked) [Z5531]	Y
O=c1[nH]nc(C2CCCN(c3ncnc4[nH]ccc34)C2)o1 (centres unmarked) [Z7655]	Y

Same assay, conditions: true hit = binding in crystallographic soaking or the HTRF-based binding assay

SMILES	HIT*
O=C(NC1c2cccc(O)c2CC1C(=O)O)c1cnc2c(c1)CCCN2 (centres unmarked) [8539_0006]	Y

These compounds were tested against T1, SARS-CoV-2 NSP3 Mac1 (assay: biochemical). Details: HTRF ADPr-peptide displacement from SARS-CoV-2 Mac1; read-out: IC50.
Format: binding

SMILES	IC50 [µM]
CCc1c[nH]c2ncnc(N3CCCC(S(C)(=O)=O)C3)c12 (centres unmarked) [Z1027]	126
O=S1(=O)CCC2(CCCN(c3ncnc4[nH]ccc34)C2)C1 (centres unmarked) [Z4305]	170
CCc1c[nH]c2ncnc(N3CCCC(Cc4nc(C)no4)C3)c12 (centres unmarked) [Z5531]	148
O=c1[nH]nc(C2CCCN(c3ncnc4[nH]ccc34)C2)o1 (centres unmarked) [Z7655]	279

Same assay, conditions: HTRF; several values in a cell are separate determinations; read-out: IC50

SMILES	IC50 [µM]
CCc1c[nH]c2ncnc(N3CCCC(S(C)(=O)=O)C3)c12 (centres unmarked) [Z1027]	126
O=S1(=O)CCC2(CCCN(c3ncnc4[nH]ccc34)C2)C1 (centres unmarked) [Z4305]	170
CCc1c[nH]c2ncnc(N3CCCC(Cc4nc(C)no4)C3)c12 (centres unmarked) [Z5531]	148
O=c1[nH]nc(C2CCCN(c3ncnc4[nH]ccc34)C2)o1 (centres unmarked) [Z7655]	279

Same assay, conditions: Ki estimation from HTRF-derived IC50, Cheng-Prusoff, peptide 400nM, Kd 2.68µM; read-out: Ki***

SMILES	Ki [µM]
O=C(NC1c2cccc(O)c2CC1C(=O)O)c1cnc2c(c1)CCCN2 (centres unmarked) [8539_0006]	146
CCc1c[nH]c2ncnc(N3CCCC(S(C)(=O)=O)C3)c12 (centres unmarked) [Z1027]	110
O=S1(=O)CCC2(CCCN(c3ncnc4[nH]ccc34)C2)C1 (centres unmarked) [Z4305]	148
CCc1c[nH]c2ncnc(N3CCCC(Cc4nc(C)no4)C3)c12 (centres unmarked) [Z5531]	129
O=c1[nH]nc(C2CCCN(c3ncnc4[nH]ccc34)C2)o1 (centres unmarked) [Z7655]	243

These compounds were tested against T1, SARS-CoV-2 NSP3 Mac1 (assay: not given). Details: DSF dose responsiveness, 1 µM nsp3 mac1; adj p given.
Format: binding
Parameters: contains a conserved macrodomain enzyme (Mac1)
Method in brief: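 Differential scanning fluorimetry using 5 µM Fluorescent Yellow dye in place of SYPRO Orange. Compounds run in triplicate at seven two-fold dilutions from 1,000 or 100 μM, with ΔTma taken against a DMSO control in the same plate region. Dose-response significance assessed by Spearman's coefficient between concentration and ΔTma.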

SMILES	Spearman est (compound concentration vs apparent Tm)
O=C(NC1c2cccc(O)c2CC1C(=O)O)c1cnc2c(c1)CCCN2 (centres unmarked) [8539_0006]	−0.43
CCc1c[nH]c2ncnc(N3CCCC(S(C)(=O)=O)C3)c12 (centres unmarked) [Z1027]	0.96
O=S1(=O)CCC2(CCCN(c3ncnc4[nH]ccc34)C2)C1 (centres unmarked) [Z4305]	0.77
CCc1c[nH]c2ncnc(N3CCCC(Cc4nc(C)no4)C3)c12 (centres unmarked) [Z5531]	0.68
O=c1[nH]nc(C2CCCN(c3ncnc4[nH]ccc34)C2)o1 (centres unmarked) [Z7655]	0.22

Same assay, conditions: maximal thermal upshift

SMILES	DSF max dTma
O=C(NC1c2cccc(O)c2CC1C(=O)O)c1cnc2c(c1)CCCN2 (centres unmarked) [8539_0006]	0 ˚C

Same assay, conditions: maximal thermal upshift vs DMSO control

SMILES	DSF max dTma [°C]
CCc1c[nH]c2ncnc(N3CCCC(S(C)(=O)=O)C3)c12 (centres unmarked) [Z1027]	1.03
O=S1(=O)CCC2(CCCN(c3ncnc4[nH]ccc34)C2)C1 (centres unmarked) [Z4305]	1.26
CCc1c[nH]c2ncnc(N3CCCC(Cc4nc(C)no4)C3)c12 (centres unmarked) [Z5531]	0.6
O=c1[nH]nc(C2CCCN(c3ncnc4[nH]ccc34)C2)o1 (centres unmarked) [Z7655]	0.6

Source: paper PMC9926234, “Iterative computational design and crystallographic screening identifies potent inhibitors targeting the Nsp3 macrodomain of SARS-CoV-2” (Proceedings of the National Academy of Sciences of the …, 2023)
